Converted amounts (≈) assume the structure as drawn. “And” between values parts separate entries of the source, which are not always exact repeats. Equal entries are not always repeated. Where two headings read alike, the source gives them in different places. Ends that are not written are not given here.
What was measured:
[1] = system: Pseudomonas aeruginosae NCTC 6749; experiment: microbe, parasite or virus in culture; assay type: cell-based; conditions: for MIC P. aeruginosae: broth microdilution (CLSI), Mueller–Hinton broth, 37 °C, peptide 0.125 to […], no visible growth, triplicate
Method: (§1) Antimicrobial activity of peptides was examined against three reference strains: Staphylococcus aureus NCTC 4163, Escherichia coli NCTC 8196 and Pseudomonas aeruginosae NCTC 6749 dedicated for the determination of antibacterial activity. The bacterial strains were stored in glycerol stock (Sigma-Aldrich, St. Louis, MO, USA) at −80 °C. Before testing, the strains were cultured aerobically in Tryptic Soy Agar (BD DIFCO, Franklin Lakes, NJ, USA) at 37 °C for 20 h. The susceptibility of microorganisms to the peptides was determined by the broth microdilution assay according to the procedures outlined by CLSI [49]. […] In order to prepare the bacterial suspension, an overnight culture of bacteria in Tryptic Soy Broth (BD DIFCO, Franklin Lakes, NJ, USA) was diluted in sterile saline to a final concentration of approximately 10^7 CFU/mL of bacteria. Aliquots (5 µL) of bacterial suspension were added to each peptide solution. The sterility control (containing the tested peptide in broth) and the growth control (containing the reference strain in broth without the tested peptide) were also set up. The plates were incubated at 37 °C under aerobic conditions. The results are expressed as the minimal inhibitory concentration (MIC) of the compounds in question. The MIC was defined as the lowest concentration at which no visible growth of bacteria (no turbidity) was observed. The assay was performed in triplicate.

[2] = system: Escherichia coli NCTC 8196; experiment: microbe, parasite or virus in culture; assay type: cell-based; conditions: for MIC E. coli: peptide 0.125 to […], no visible growth
Method: as §1

[3] = system: Staphylococcus aureus NCTC 4163; experiment: microbe, parasite or virus in culture; assay type: cell-based; conditions: for MIC S. aureus: peptide 0.125 to […], no visible growth; for MIC: read-out: MIC S. aureus
Method: as §1

[4] = Circular dichroism spectroscopy, relative α-helix fraction; assay type: physicochemical; conditions: CD, peptide 0.15 mg/mL, 25 °C, three scans averaged; for Relative α-helix fraction (fH), 0.1 M Tris + 50 mM SDS: 0.1 M Tris buffer pH 7.01 + 50 mM SDS, from mean residue ellipticity at 222 nm; for Relative α-helix fraction (fH), 50% TFE / Relative α-helix fraction (fH), water: from mean residue ellipticity at 222 nm (Rohl and Baldwin)
Method: Circular dichroism spectroscopy was applied to evaluate the conformational changes of peptides induced by membrane-mimetic environments. The secondary structures of MP and some of its MP analogs (Table 4) were determined in water, 50% 2,2,2-trifluoroethanol (TFE) and 0.1 M Tris buffer with the addition of 50 mM SDS. The relative α-helix fraction (fH) values presented in Table 4, calculated from the values of mean residue ellipticity at 222 nm, reflect the ability of peptides to adopt helical structure in the tested environments.
Circular dichroism (CD) spectra of peptides were recorded on a Jasco J-815 spectropolarimeter (Jasco Int. Co., Ltd., Tokyo, Japan). The CD spectra were acquired for peptides in a concentration of 0.15 mg/mL in water, 50% 2,2,2-trifluoroethanol (TFE) or 0.1 M tris(hydroxymethyl)aminomethane (Tris) buffer (pH 7.01) with the addition of 50 mM SDS (sodium dodecylsulphate) in 0.1 cm path length cuvettes. Measurements were taken at 25 °C in a spectral range of 193–260 nm with a bandwidth of 1 nm and response of 1 s. The spectra were averaged after three scans. Ellipticity was measured in mdeg units and converted to mean residue ellipticity (Θ). The relative helix content (fH) was calculated from the mean residue ellipticity values at 222 nm using the method proposed by Rohl and Baldwin [50] and described previously. Helical wheel projections (Figure 3) were made with HeliQuest https://heliquest.ipmc.cnrs.fr/ (accessed on 1 June 2022).

[5] = broth microdilution (CLSI), Mueller–Hinton broth, 37 °C, triplicate
[6] = same MIC expressed as molar concentration, broth microdilution (CLSI), Mueller–Hinton broth, 37 °C, triplicate

YKPITNF-NH2 [[Lys^2, Ile^4] RIP, reference compound]
MIC P. aeruginosae [1]: >256 µg/mL

CCCCCCCCCc1nc2ccccc2n1CC(=O)NCCCC[C@H](NC(=O)CNC(=O)[C@H](CC(C)C)NC(=O)[C@H](CC(C)C)NC(=O)[C@H](Cc1ccc(O)cc1)NC(=O)CNC(=O)[C@H](C)N)C(=O)N[C@H](C(=O)N[C@@H](CC(N)=O)C(=O)N[C@@H](CC(C)C)C(=O)N[C@@H](CCCCN)C(=O)N[C@@H](C)C(=O)N[C@@H](CC(C)C)C(=O)N[C@@H](C)C(=O)N[C@@H](C)C(=O)N[C@@H](CC(C)C)C(=O)N[C@@H](C)C(=O)N[C@@H](CCCCN)C(=O)N[C@@H](CCCCN)C(=O)N[C@H](C(=O)N[C@@H](CC(C)C)C(N)=O)[C@@H](C)CC)[C@@H](C)CC [[Lys^7 (NBnzAc)] TP10]
MIC P. aeruginosae [1]: >256 µg/mL | MIC E. coli [2, 5]: >256 µg/mL | MIC S. aureus [3, 5]: >256 µg/mL

CC[C@H](C)[C@H](NC(=O)[C@H](CCCCN)NC(=O)[C@H](CCCCN)NC(=O)[C@H](C)NC(=O)[C@H](CC(C)C)NC(=O)[C@H](C)NC(=O)[C@H](C)NC(=O)[C@H](CC(C)C)NC(=O)[C@H](C)NC(=O)[C@H](CCCCN)NC(=O)[C@H](CC(C)C)NC(=O)[C@H](CC(N)=O)NC(=O)[C@@H](NC(=O)[C@H](CCCCNC(=O)Cn1cnc2ccccc21)NC(=O)CNC(=O)[C@H](CC(C)C)NC(=O)[C@H](CC(C)C)NC(=O)[C@H](Cc1ccc(O)cc1)NC(=O)CNC(=O)[C@H](C)N)[C@@H](C)CC)C(=O)N[C@@H](CC(C)C)C(N)=O [[Lys^7 (BnzAc)] TP10]
MIC P. aeruginosae [1]: >256 µg/mL | MIC E. coli [2, 5]: >256 µg/mL | MIC S. aureus [3, 5]: 256 µg/mL (≈ 109 µM)

CC[C@H](C)[C@H](NC(=O)[C@H](CCCCN)NC(=O)CNC(=O)[C@H](CC(C)C)NC(=O)[C@H](CC(C)C)NC(=O)[C@H](Cc1ccc(O)cc1)NC(=O)CNC(=O)[C@H](C)N)C(=O)N[C@@H](CC(N)=O)C(=O)N[C@@H](CC(C)C)C(=O)N[C@@H](CCCCN)C(=O)N[C@@H](C)C(=O)N[C@@H](CC(C)C)C(=O)N[C@@H](C)C(=O)N[C@@H](C)C(=O)N[C@@H](CC(C)C)C(=O)N[C@@H](C)C(=O)N[C@@H](CCCCN)C(=O)N[C@@H](CCCCN)C(=O)N[C@H](C(=O)N[C@@H](CC(C)C)C(=O)N[C@@H](Cc1ccc(O)cc1)C(=O)N[C@@H](CO)C(=O)N1CCC[C@H]1C(=O)N[C@@H](Cc1c[nH]c2ccccc12)C(=O)N[C@H](C(=O)N[C@@H](CC(N)=O)C(=O)N[C@@H](Cc1ccccc1)C(N)=O)[C@@H](C)O)[C@@H](C)CC [TP10-RIP]
MIC P. aeruginosae [1]: >256 µg/mL | MIC E. coli [2, 5]: >256 µg/mL | MIC S. aureus [3, 5]: 128 µg/mL (≈ 41.6 µM) | Relative α-helix fraction (fH), 0.1 M Tris + 50 mM SDS [4]: 0.25 | Relative α-helix fraction (fH), 50% TFE [4]: 0.27 | Relative α-helix fraction (fH), water [4]: 0.08

CC[C@H](C)[C@H](NC(=O)[C@H](CCCCN)NC(=O)[C@H](CCCCN)NC(=O)[C@H](C)NC(=O)[C@H](CC(C)C)NC(=O)[C@H](C)NC(=O)[C@H](C)NC(=O)[C@H](CC(C)C)NC(=O)[C@H](C)NC(=O)[C@H](CCCCN)NC(=O)[C@H](CC(C)C)NC(=O)[C@H](CC(N)=O)NC(=O)[C@@H](NC(=O)[C@H](CCCCNC(=O)Cn1c(-c2ccccc2Cl)nc2ccccc21)NC(=O)CNC(=O)[C@H](CC(C)C)NC(=O)[C@H](CC(C)C)NC(=O)[C@H](Cc1ccc(O)cc1)NC(=O)CNC(=O)[C@H](C)N)[C@@H](C)CC)C(=O)N[C@@H](CC(C)C)C(N)=O [[Lys^7 (ClBnzAc)] TP10]
MIC P. aeruginosae [1]: >256 µg/mL | MIC E. coli [2, 5]: >256 µg/mL | MIC S. aureus [3, 5]: >256 µg/mL

INLKALAALAKKILYKPITNF-NH2 [MP-[Lys^2, Ile^4] RIP]
MIC P. aeruginosae [1]: >256 µg/mL

GWTLNSAGYLLGPINLKALAALAKKIL-NH2 [Galp, galparan, reference compound]
MIC P. aeruginosae [1]: >256 µg/mL

CC[C@H](C)[C@H](NC(=O)[C@H](CCCCN)NC(=O)[C@H](CCCCN)NC(=O)[C@H](C)NC(=O)[C@H](CC(C)C)NC(=O)[C@H](C)NC(=O)[C@H](C)NC(=O)[C@H](CC(C)C)NC(=O)[C@H](C)NC(=O)[C@H](CCCCN)NC(=O)[C@H](CC(C)C)NC(=O)[C@H](CC(N)=O)NC(=O)[C@@H](NC(=O)[C@H](CCCCNC(=O)Cn1c(-c2ccccn2)nc2ccccc21)NC(=O)CNC(=O)[C@H](CC(C)C)NC(=O)[C@H](CC(C)C)NC(=O)[C@H](Cc1ccc(O)cc1)NC(=O)CNC(=O)[C@H](C)N)[C@@H](C)CC)C(=O)N[C@@H](CC(C)C)C(N)=O [[Lys^7 (PBnzAc)] TP10]
MIC P. aeruginosae [1]: >256 µg/mL | MIC E. coli [2, 5]: >256 µg/mL | MIC S. aureus [3, 5]: >256 µg/mL | Relative α-helix fraction (fH), 0.1 M Tris + 50 mM SDS [4]: 0.32 | Relative α-helix fraction (fH), 50% TFE [4]: 0.51 | Relative α-helix fraction (fH), water [4]: 0.14–0.19 and 0.15

CC[C@H](C)[C@H](NC(=O)[C@H](CCCCN)NC(=O)[C@H](CCCCN)NC(=O)[C@H](C)NC(=O)[C@H](CC(C)C)NC(=O)[C@H](C)NC(=O)[C@H](C)NC(=O)[C@H](CC(C)C)NC(=O)[C@H](C)NC(=O)[C@H](CCCCN)NC(=O)[C@H](CC(C)C)NC(=O)[C@H](CC(N)=O)NC(=O)[C@@H](NC(=O)[C@H](CCCCN)NC(=O)CNC(=O)[C@H](CC(C)C)NC(=O)[C@H](CC(C)C)NC(=O)[C@H](Cc1ccc(O)cc1)NC(=O)CNC(=O)[C@H](C)N)[C@@H](C)CC)C(=O)N[C@@H](CC(C)C)C(N)=O [TP10, transportan 10, reference compound]
MIC P. aeruginosae [1]: 256 µg/mL (≈ 117 µM)

KALAALAKKIL-NH2 [MP (4–14)]
MIC P. aeruginosae [1]: >256 µg/mL

CNC(C)C1CCC(N)C(OC2C(N)CC(N)C(OC3OCC(C)(O)C(NC)C3O)C2O)O1 (stereo not drawn) [Gentamicin, gentamicin, reference compound]
MIC ([1]; Pseudomonas, NCTC6749, read-out: MIC P. aeruginosae): 0.25 µg/mL (≈ 0.523 µM) | MIC ([2]; Escherichia coli, NCTC8196): 1 µg/mL | MIC ([2]; Escherichia coli, NCTC8196, same MIC expressed as molar concentration, broth microdilution (CLSI), Mueller–Hinton broth, 37 °C, triplicate): 2.1 µM | MIC ([3]; Staphylococcus aureus, NCTC4163): 0.5 µg/mL | MIC ([3]; Staphylococcus aureus, NCTC4163, same MIC expressed as molar concentration, broth microdilution (CLSI), Mueller–Hinton broth, 37 °C, triplicate): 1.1 µM

CC[C@H](C)[C@H](NC(=O)[C@H](CCCCN)NC(=O)[C@H](CCCCN)NC(=O)[C@H](C)NC(=O)[C@H](CC(C)C)NC(=O)[C@H](C)NC(=O)[C@H](C)NC(=O)[C@H](CC(C)C)NC(=O)[C@H](C)NC(=O)[C@H](CCCCN)NC(=O)[C@H](CC(C)C)NC(=O)[C@H](CC(N)=O)NC(=O)[C@@H](NC(=O)[C@H](CCCCN)NC(=O)CNC(=O)[C@H](CC(C)C)NC(=O)[C@H](CC(C)C)NC(=O)[C@H](Cc1ccc(O)cc1)NC(=O)CNC(=O)[C@H](C)NC(=O)[C@H](CO)NC(=O)[C@H](CC(N)=O)NC(=O)[C@H](CC(C)C)NC(=O)[C@@H](NC(=O)[C@H](Cc1c[nH]c2ccccc12)NC(=O)CN)[C@@H](C)O)[C@@H](C)CC)C(=O)N[C@@H](CC(C)C)C(N)=O [TP, transportan, reference compound]
MIC P. aeruginosae [1]: >256 µg/mL

YKPITNFINLKALAALAKKIL-NH2 [[Lys^2, Ile^4] RIP-MP]
MIC P. aeruginosae [1]: >256 µg/mL

KALAALAKKILYKPITNF-NH2 [MP (4–14)-[Lys^2, Ile^4] RIP]
MIC P. aeruginosae [1]: >256 µg/mL

AGYLLGINLKALAALAKKILYKPITNF-NH2 [[desLys^7] TP10-[Lys^2, Ile^4] RIP]
MIC P. aeruginosae [1]: >256 µg/mL

CC[C@H](C)[C@H](N)C(=O)N[C@@H](CC(N)=O)C(=O)N[C@@H](CC(C)C)C(=O)N[C@@H](CCCCN)C(=O)N[C@@H](C)C(=O)N[C@@H](CC(C)C)C(=O)N[C@@H](C)C(=O)N[C@@H](C)C(=O)N[C@@H](CC(C)C)C(=O)N[C@@H](C)C(=O)N[C@@H](CCCCN)C(=O)N[C@@H](CCCCN)C(=O)N[C@H](C(=O)N[C@@H](CC(C)C)C(N)=O)[C@@H](C)CC [MP, mastoparan]
MIC P. aeruginosae [1]: 256 µg/mL (≈ 173 µM) | MIC [2, 6]: 21.6 µM | MIC [3, 6]: 5.4 µM

KALAALAKKILYSPWTNF-NH2 [MP (4–14)-RIP]
MIC P. aeruginosae [1]: >256 µg/mL

From paper PMC9332802, “Structure–Activity Relationship of New Chimeric Analogs of Mastoparan from the Wasp Venom Paravespula lewisii” (International Journal of Molecular Sciences, 2022)
